Source: patent US10857230B2, “Co-therapy comprising a small molecule CSF-1R inhibitor and an agonistic antibody that specifically binds CD40 for the treatment of cancer” (Janssen Biotech, Inc., priority 2017, dated 2020)
“And” between values parts separate entries of the source, which are not always exact repeats. Equal entries are not always repeated.

System: CT26 murine colon carcinoma cells
Assay: CT26 Tumor Size Assay (Example 2)
Assay type: in vivo, BALB/c mice
Settings: for Median TTE: 39-day study
Protocol: The animals were fed ad libitum water (reverse osmosis, 1 ppm CI) and NIH 31 Modified and Irradiated Lab Diet® consisting of 18.0% crude protein, 5.0% crude fat, and 5.0% crude fiber. The mice were housed on irradiated Enrich-o'Cobs™ bedding in static microisolators on a 12-hour light cycle at 20-22° C. (68-72° F.) and 40-60% humidity.
CT26 murine colon carcinoma cells were grown in RPMI-1640 medium containing 10% fetal bovine serum, 2 mM glutamine, 100 units/mL penicillin G sodium, 100 μg/mL streptomycin sulfate, and 25 μg/mL gentamicin. The cells were cultured in tissue culture flasks in a humidified incubator at 37° C., in an atmosphere of 5% CO2 and 95% air.
The CT26 colon cells used for implantation were harvested during log phase growth and re-suspended in cold PBS. Each mouse was injected subcutaneously in the right flank with 3×10^5 tumor cells (0.1 mL cell suspension) and tumors were monitored as their volumes approached the target range of 75 to 125 mm3. Fourteen days after tumor implantation, on Day 1 of the study, animals with individual tumor volumes ranging from 75 to 125 mm^3 were sorted into fourteen groups (n=10) with group mean tumor volumes of 118-119 mm3. Tumors were measured with calipers twice weekly in two dimensions.
where w=width and l=length, in mm, of a tumor. Tumor weight was estimated with the assumption that 1 mg is equivalent to 1 mm3 of tumor volume.
The compound of formula (I), rat IgG2a (Clone 2A3) (5.55 mg/mL), anti-mCD40 (Clone FGK45) (5.46 mg/mL, purchased from BioXCell, anti-mouse CD40, Clone: FGK45, SKU: 13E0016-2, Lot No. 4699/0614B), and anti-CSF1R (5.41 mg/mL, purchased from BioXCell anti-mouse CSF1R (CD115), Clone: AFS98, SKU: BE0213, Lot No. 5248/0814) were used as test compounds, alone and in combination. The compound of formula (I) was stored at room temperature and antibody stock solutions were stored at 4° C. upon receipt.
Each week of dosing, the compound of formula (I) was dissolved in 0.5% HPMC to yield a 1.0 mg/mL dosing solution. The dosing solution was stored at 4° C., protected from light. The rat IgG2a isotype and anti-CSF1R dosing solutions were prepared fresh each day by diluting aliquots of the stock solutions with PBS to yield 1.0 mg/mL dosing solutions. The dosing solutions were stored at 4° C., protected from light. The anti-mCD40 dosing solution was prepared fresh each day by diluting an aliquot of the stock solution with PBS to yield a 0.5 mg/mL dosing solution. The dosing solution was stored at 4° C., protected from light.
On Day 1 of the study, fourteen groups of BALB/c mice (n=10) began dosing according to the following protocol.
The vehicle (0.5% HPMC) and the compound of formula (I) were administered orally (p.o.). The rat IgG2a isotype control, anti-mCD40, and anti-CSF1R were administered intraperitoneally (i.p.). Rat IgG2a(2A3), the compound of formula (I) and the anti-CSF1R were administered at 10 mg/kg. The anti-mCD40 was administered at 5 mg/kg. The dosing volume for all animals was 10 mL/kg (0.2 mL per 20-g mouse) and was adjusted for body weight.
Tumors were measured using calipers twice per week. The study endpoint was originally defined as a mean tumor volume of 1500 mm^3 in the control group or 60 days, whichever came first. Day 15 was chosen for TGI analysis. The MTV (n), the median tumor volume for the number of animals, n, on Day 15, was determined for each group. Percent tumor growth inhibition (% TGI) was defined as the difference between the MTV of the designated control group (Group 1) and the MTV of the drug-treated group, expressed as a percentage of the MTV of the control group: […]
The data set for TGI analysis includes all animals in a group, except those that die due to treatment-related (TR) or non-treatment-related (NTR) causes.
Animals were monitored individually for tumor growth until Day 39. The study protocol specified a tumor growth delay assay based on the median time-to-endpoint (TTE) in a treated group versus the control group. […]

[1] = Groups 3-7: all dosing from Day 1 (antibodies i.p. Days 1, 5, 9, formula (I) p.o. bid×14), formula (I) and anti-CSF1R 10 mg/kg, anti-mCD40 5 mg/kg, vs rat IgG2a control Group 1
[2] = Groups 9, 11, 13, 14: formula (I) 10 mg/kg p.o. bid×14 beginning Day 4 or anti-CSF1R 10 mg/kg i.p. Days 4, 8, 12, in combinations anti-mCD40 5 mg/kg i.p. Days 1, 5, 9, vs rat IgG2a control Group 1

## CC1(C)CC=C(c2nc(C3CC(C)(C)OC(C)(C)C3)ccc2NC(=O)c2nc(C#N)c[nH]2)CC1 [compound of formula (I), 4-cyano-N-(2-(4,4-dimethylcyclohex-1-en-1-yl)-6-(2,2,6,6-tetramethyltetrahydro-2H-pyran-4-yl)pyridin-3-yl)-1H-imidazole-2-carboxamide]
Day 15, Groups 3-7: all dosing from Day 1 (antibodies i.p. Days 1, 5, 9, formula (I) p.o. bid×14), formula (I) and anti-CSF1R 10 mg/kg, anti-mCD40 5 mg/kg
  MTV (n) Day 15: 1913 mm^3
Day 15, Groups 9, 11, 13, 14: formula (I) 10 mg/kg p.o. bid×14 beginning Day 4 or anti-CSF1R 10 mg/kg i.p. Days 4, 8, 12, in combinations anti-mCD40 5 mg/kg i.p. Days 1, 5, 9
  MTV (n) Day 15: 1545 mm^3 and 1545 (8) mm^3
Day 15, vs rat IgG2a control Group 1, Groups 3-7: all dosing from Day 1 (antibodies i.p. Days 1, 5, 9, formula (I) p.o. bid×14), formula (I) and anti-CSF1R 10 mg/kg, anti-mCD40 5 mg/kg
  % TGI: 23%
Day 15, vs rat IgG2a control Group 1, Groups 9, 11, 13, 14: formula (I) 10 mg/kg p.o. bid×14 beginning Day 4 or anti-CSF1R 10 mg/kg i.p. Days 4, 8, 12, in combinations anti-mCD40 5 mg/kg i.p. Days 1, 5, 9
  % TGI: 38%
Groups 3-7: all dosing from Day 1 (antibodies i.p. Days 1, 5, 9, formula (I) p.o. bid×14), formula (I) and anti-CSF1R 10 mg/kg, anti-mCD40 5 mg/kg, 1500 mm^3 endpoint
  Median TTE: 13.0 days
[1]
  % TGD: 7%
  T-C: 0.9 days
Groups 9, 11, 13, 14: formula (I) 10 mg/kg p.o. bid×14 beginning Day 4 or anti-CSF1R 10 mg/kg i.p. Days 4, 8, 12, in combinations anti-mCD40 5 mg/kg i.p. Days 1, 5, 9, 1500 mm^3 endpoint
  Median TTE: 13.9 days
[2]
  % TGD: 15%
  T-C: 1.8 days
